Measured values: US7772216B2, “Protein kinase and phosphatase inhibitors and methods for designing them” (The Research Foundation of State University of New York, priority 2001, dated 2010)
Where “and” joins values, the source holds several entries; their conditions need not be identical. Equal entries are not always repeated. Where two headings read alike, the source gives them in different places. Starred links: 1 amine or outer side, 2 acyl side, 3 side chain; linkers in the order of their positions; H or OH if unused. Non-standard residues stand in square brackets, D forms with d. Residues, ends and D or L forms follow the SMILES beside them. X5 = O=C([C@H](CNS(=O)(=O)O)N[*:1])[*:2]; X6 = NS(=O)(=O)CC[C@H](N[*:1])C(=O)[*:2]; X2 = O=C([C@@H](CB(O)O)N[*:1])[*:2]; X3 = O=C([C@H](CCB(O)O)N[*:1])[*:2]; X1 = O=C([C@H](CB(O)O)N[*:1])[*:2]

Assays:
[1] = molecular target: EGFRTK (Homo sapiens, UniProt P00533); test: EGFRTK inhibition; format: biochemical; conditions: % inhibition at 10 micromolar compound
Source text: (§1) Blanks for a particular enzyme indicate that inhibition was not found.

[2] = molecular target: T1, PTP-1B (Homo sapiens, UniProt P18031); test: PTP-1B inhibition; format: biochemical; conditions: % inhibition at 10 micromolar compound
T1 sequence (P18031 1-435): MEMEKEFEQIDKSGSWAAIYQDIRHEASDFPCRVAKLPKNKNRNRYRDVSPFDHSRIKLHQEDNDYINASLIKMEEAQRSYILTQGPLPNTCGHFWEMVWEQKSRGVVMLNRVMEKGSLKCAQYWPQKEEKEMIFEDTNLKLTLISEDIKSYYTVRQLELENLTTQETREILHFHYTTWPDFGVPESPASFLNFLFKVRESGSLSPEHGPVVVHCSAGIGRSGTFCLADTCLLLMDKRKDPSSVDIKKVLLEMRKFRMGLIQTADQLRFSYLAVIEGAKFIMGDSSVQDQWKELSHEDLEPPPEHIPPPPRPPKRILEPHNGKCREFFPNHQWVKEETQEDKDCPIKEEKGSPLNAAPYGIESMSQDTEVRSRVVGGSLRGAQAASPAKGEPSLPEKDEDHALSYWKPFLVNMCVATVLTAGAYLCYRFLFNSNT
Source text: as §1

[3] = molecular target: T2, PKA (Homo sapiens, UniProt P17612); test: Literature Mimetic PKA assay; format: biochemical; conditions: for Ki: Literature Mimetic (L) conditions, pentapeptide PKA inhibitors; for IC50: Literature Mimetic
Source text: (§2) The boronic acid inhibitors 21-24 have two Arg's in their sequence also and therefore will bind to the phosphocellulose paper in addition to Kemptamide (although not as consistently or completely due to one less positive charge). Consequently, when analyzed as inhibitors, the amount of phosphorylated Kemptamide produced was not only counted, but also the amount of phosphorylated inhibitor simultaneously produced (e.g. see 26 below). The net result is that distorted IC50 curves are obtained which show net “stimulation” at higher inhibitor concentrations in some cases. […] The underlying substrate behavior of these “inhibitors” makes an accurate measurement of their inhibition potency impossible with the current assay. However, it does appear from the data that homologating the boronic acid functionality out with only CH2 groups (homologations with boronic acid non-peptide Src inhibitors may also be carried out) decreases the binding affinity and ability to function as a substrate.

[4] = molecular target: T2, PKA; test: Cellular Mimetic PKA assay; format: biochemical; conditions: for % sti (stimulation) / inhibition at 2000 µM: 2000 μM inhibitor, C; for IC50: Cellular Mimetic
Source text: as §2
Phosphorylated Kemptamide is SEQ. ID. No. 6. Phosphorylated 22 is SEQ. ID. No. 4. […] The graphs show their respective rates and levels of phosphorylation with the typical loss of initial velocity kinetics with time (due to substrate depletion and end product inhibition), analogous to a standard L-Ser substrate such as Kemptamide. The comparison of 21 to 22 shown was done in the same assay run, at identical boronic acid substrate concentrations, and with identical Cellular Mimetic assay solutions so that the cpm's could be directly compared. […] That the boronic acid moiety would be phosphorylated by PKA was surprising, but it is even more surprising that the phosphonic-boronic acid mixed anhydride produced (e.g. 26) was stable enough to survive the pH 7.2/37° C. assay incubation and then be isolated by binding to phosphocellulose paper after acid quenching of the reaction with 10% TCA and washing the phosphocellulose paper with 25 mM phosphoric acid (3×). An STN substructure search was run on mixed anhydrides of phosphoric and boronic acids and found only three references to experiments and theoretical calculations for the analogous putative (but not proven) anhydride formed from boric acid and phosphoric acid as a solid surface impregnated catalyst for the partial oxidation of ethane to acetaldehyde at 823° K. (Zhanpeisov & Otsuka, 1992, Otsuka et al., 1992, Murakami et al., 1990). However, this highly unusual anhydride has never before been synthesized free of a solid surface, isolated, or characterized. Thus, this is a novel enzymatic reaction and chemical entity with interesting possibilities for protein kinase inhibitor designs.

[5] = molecular target: pp60^c-src (Homo sapiens, UniProt P12931); test: Cellular Mimetic Src assay (RR-SRC phosphorylation); conditions: for Ki: Table IV; for inhibition at 1000 µM: read-out: % Inhibition of 2 mM RR-src at Inhibitor Concentration (1 mM)
[6] = 0 h preincubation, * very distorted IC50 curve, read-out: IC50 μM (cond. C, 0 h preincubation)
[7] = read-out: % Inhibition at 100 μM (std. dev.)
[8] = 0 h preincubation, read-out: IC50 μM (cond. L, 0 h preincubation)
[9] = IC50 μM (cond. L, 4 h preincubation), 4 h preincubation, * very distorted IC50 curve
[10] = read-out: % Inhibition of 2 mM RR-src at Inhibitor Concentration (100 μM)

Sequence of EGFRTK (P00533 25-1210): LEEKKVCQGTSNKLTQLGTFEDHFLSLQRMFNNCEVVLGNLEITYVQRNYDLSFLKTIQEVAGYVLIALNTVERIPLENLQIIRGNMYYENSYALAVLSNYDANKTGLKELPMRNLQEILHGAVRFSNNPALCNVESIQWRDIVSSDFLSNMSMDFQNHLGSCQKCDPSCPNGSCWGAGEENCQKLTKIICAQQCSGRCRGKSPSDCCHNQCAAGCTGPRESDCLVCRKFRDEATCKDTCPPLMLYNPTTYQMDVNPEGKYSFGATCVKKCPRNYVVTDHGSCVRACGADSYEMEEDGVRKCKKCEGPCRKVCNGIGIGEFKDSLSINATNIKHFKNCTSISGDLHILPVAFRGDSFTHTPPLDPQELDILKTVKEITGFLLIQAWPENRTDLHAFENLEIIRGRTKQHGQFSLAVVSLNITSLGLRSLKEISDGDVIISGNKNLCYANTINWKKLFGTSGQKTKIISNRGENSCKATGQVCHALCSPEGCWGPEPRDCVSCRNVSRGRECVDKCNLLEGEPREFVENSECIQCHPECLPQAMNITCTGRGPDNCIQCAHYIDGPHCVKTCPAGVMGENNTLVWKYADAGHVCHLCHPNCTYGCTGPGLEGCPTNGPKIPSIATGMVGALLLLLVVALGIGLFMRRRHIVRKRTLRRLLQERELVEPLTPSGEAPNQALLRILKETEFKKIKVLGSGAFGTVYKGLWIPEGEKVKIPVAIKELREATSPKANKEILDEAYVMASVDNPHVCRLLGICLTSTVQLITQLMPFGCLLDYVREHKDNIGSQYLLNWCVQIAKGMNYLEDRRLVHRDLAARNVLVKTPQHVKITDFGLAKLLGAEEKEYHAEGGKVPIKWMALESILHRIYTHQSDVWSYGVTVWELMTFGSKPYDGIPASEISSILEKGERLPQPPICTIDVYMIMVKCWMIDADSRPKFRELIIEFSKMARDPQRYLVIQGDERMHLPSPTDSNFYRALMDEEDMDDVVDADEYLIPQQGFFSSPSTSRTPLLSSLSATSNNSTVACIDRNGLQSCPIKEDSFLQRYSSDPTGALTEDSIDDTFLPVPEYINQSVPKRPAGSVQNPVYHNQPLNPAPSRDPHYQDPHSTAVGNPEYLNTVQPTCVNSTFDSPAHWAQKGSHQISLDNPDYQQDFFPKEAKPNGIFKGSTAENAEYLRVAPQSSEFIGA
Sequence of pp60^c-src (P12931 whole entry): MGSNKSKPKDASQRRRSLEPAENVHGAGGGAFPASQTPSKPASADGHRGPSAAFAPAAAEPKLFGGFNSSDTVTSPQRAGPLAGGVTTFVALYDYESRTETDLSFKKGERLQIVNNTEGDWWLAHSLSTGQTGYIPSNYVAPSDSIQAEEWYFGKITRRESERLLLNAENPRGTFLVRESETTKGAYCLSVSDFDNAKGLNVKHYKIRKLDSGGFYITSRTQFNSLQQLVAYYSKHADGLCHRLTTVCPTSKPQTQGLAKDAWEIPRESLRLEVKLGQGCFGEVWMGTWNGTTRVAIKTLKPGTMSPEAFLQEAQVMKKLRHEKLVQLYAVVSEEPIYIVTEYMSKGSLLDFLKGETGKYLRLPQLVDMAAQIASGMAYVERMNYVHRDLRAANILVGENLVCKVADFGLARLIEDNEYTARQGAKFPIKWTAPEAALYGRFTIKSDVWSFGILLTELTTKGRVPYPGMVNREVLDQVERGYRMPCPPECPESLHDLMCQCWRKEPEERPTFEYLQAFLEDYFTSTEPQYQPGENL

Compound: O=C(NCc1ccc(Br)cc1)c1cc2cc(F)ccc2[nH]1 [Compound 1kkkk]
- EGFRTK @ 10 μm [1]: 30%

Compound: CCCOc1ccc(CNC(=O)c2cc3cc(F)ccc3[nH]2)cc1O [Compound 1nnnn]
- EGFRTK @ 10 μm [1]: 17%

Compound: O=C(NCCCCCCO)c1cc2cc(F)ccc2[nH]1 [Compound 1qqqq]
- EGFRTK @ 10 μm [1]: 18%

Compound: O=C(NCc1ccc(Cl)cc1Cl)c1cc2cc(F)ccc2[nH]1 [Compound 1ss]
- PTP-1B @ 10 μm [2]: 12%

Compound: O=C(NCc1ccc(F)cc1)c1cc2cc(F)ccc2[nH]1 [Compound 1uuu]
- PTP-1B @ 10 μm [2]: 13%

Compound: O=C(Nc1ccccc1CO)c1cc2cc(F)ccc2[nH]1 [Compound 1xxx]
- PTP-1B @ 10 μm [2]: 12%

Compound: O=C(NCc1ccccc1Cl)c1cc2cc(F)ccc2[nH]1 [Compound 1yy]
- PTP-1B @ 10 μm [2]: 10%

Compound: O=C(Nc1cccc(CO)c1)c1cc2cc(F)ccc2[nH]1 [Compound 1yyy]
- EGFRTK @ 10 μm [1]: 11%

Compound: O=C(NCc1ccc(F)cc1C(F)(F)F)c1[nH]c2ccc(F)cc2c1-c1ccccc1 [Compound 2hh]
- EGFRTK @ 10 μm [1]: 12%

Compound: O=C(NCc1cc(Br)ccc1F)c1[nH]c2ccc(F)cc2c1-c1ccccc1 [Compound 2ll]
- EGFRTK @ 10 μm [1]: 10%

Compound: CC[C@H](C)[C@H](NC(=O)[C@H](CCS(N)(=O)=O)NC(=O)CNC(=O)[C@H](CCCNC(=N)N)NC(=O)[C@H](CCCNC(=N)N)NC(C)=O)C(N)=O [Compound 7] (Ac-RRG[X6]I-NH2)
- Ki ([3]; read-out: Ki): 300 µM

Compound: CC[C@H](C)[C@H](NC(=O)[C@H](CNS(=O)(=O)O)NC(=O)CNC(=O)[C@H](CCCNC(=N)N)NC(=O)[C@H](CCCNC(=N)N)NC(C)=O)C(N)=O [Compound 8] (Ac-RRG[X5]I-NH2)
- Ki ([3]; Ki): 0.16 µM

Compound: CC[C@H](C)[C@H](NC(=O)[C@H](CB(O)O)NC(=O)CNC(=O)[C@H](CCCNC(=N)N)NC(=O)[C@H](CCCNC(=N)N)NC(C)=O)C(N)=O [Compound 21] (Ac-RRG[X1]I-NH2)
- % sti (stimulation) ([4]; 4 h preincubation): 19%
- % sti (stimulation) ([4]; 4 h preincubation, listed as drawing 32): *2000 μM 19% sti
- IC50 [4, 6]: 764 µM
- inhibition at 100 µM [5, 7]: 54%
- inhibition at 500 µM ([3]; 500 μM inhibitor, L, 4 h preincubation): 34%
- Ki ([3]; read-out: Ki): ~9 µM
- IC50 [3, 8]: 249 µM

Compound: CC[C@H](C)[C@H](NC(=O)[C@@H](CB(O)O)NC(=O)CNC(=O)[C@H](CCCNC(=N)N)NC(=O)[C@H](CCCNC(=N)N)NC(C)=O)C(N)=O [Compound 22] (Ac-RRG[X2]I-NH2)
- % sti (stimulation) ([4]; 4 h preincubation): 71%
- % sti (stimulation) ([4]; 4 h preincubation, listed as drawing 33): *2000 μM 71% sti
- IC50 [4, 6]: 1750 µM
- IC50 [3, 9]: 65 µM
- IC50 [3, 8]: 81 µM

Compound: CC[C@H](C)[C@H](NC(=O)[C@H](CCB(O)O)NC(=O)CNC(=O)[C@H](CCCNC(=N)N)NC(=O)[C@H](CCCNC(=N)N)NC(C)=O)C(N)=O [Compound 23] (Ac-RRG[X3]I-NH2)
- inhibition at 2000 µM ([4]; 0 h preincubation): 16%
- % sti (stimulation) ([4]; 4 h preincubation): 5%
- inhibition at 2000 µM ([4]; 4 h preincubation): 5%
- IC50 [3, 9]: 133 µM
- IC50 [3, 8]: 398 µM

Compound: OB(O)c1ccc2ccccc2c1 [Compound 27, 2-naphthalene boronic acid]
- IC50 [5]: 950 µM
- Ki [5]: ~554 µM and 554 µM
- inhibition at 100 µM [5, 10]: 13%
- inhibition at 1000 µM [5]: 59%

Compound: O=S(=O)(O)Nc1ccc2ccccc2c1 [Compound 28]
- IC50 [5]: 1600 µM
- Ki [5]: 963 µM
- inhibition at 1000 µM [5]: 31%

Compound: N=c1oc2c(O)cccc2cc1C(=O)Nc1cccc(O)c1 [Compound 50, reference compound]
- % Inhibition of 2 mM RR-src at Inhibitor Concentration (100 μM) ([5]; Table V, inhibitor 100 μM): 30 (100 μM) %
- inhibition at 100 µM [5, 10]: 30%

Compound: N=c1oc2c(O)cccc2cc1C(=O)Nc1cccc(O)c1 [Iminochromene 9TA, reference compound]
- % Inhibition at 100 μM (std. dev.) ([5]; Table IX, hydroxynaphthalene derivatives and published inhibitors): 30 (+/−15) %
- inhibition at 100 µM [5, 7]: 30%

Compound: Oc1cc(O)cc(/C=C/c2ccc(O)c(O)c2)c1 [Piceatannol, reference compound]
- inhibition at 100 µM ([5]; read-out: % Inhibition at 100 μM (std. dev.), Table IX, hydroxynaphthalene derivatives and published inhibitors): 41%

Compound: Oc1cc(O)cc(/C=C/c2ccc(O)c(O)c2)c1 [drawing 66, piceatannol, reference compound]
- inhibition at 100 µM ([5]; read-out: % Inhibition of 2 mM RR-src at Inhibitor Concentration (100 μM), Table V, inhibitor 100 μM): 41%

Compound: Ac-RRGAI-NH2 [Compound 20]
- Ki ([4]; Cellular Mimetic (C) conditions): 25 µM
- IC50 [4, 6]: 41 µM
- IC50 ([4]; IC50 μM (cond. C, 4 h preincubation), 4 h preincubation): 50 µM
- IC50 [3, 9]: 417 µM
- Ki ([3]; read-out: Ki): ~9 µM and 9 µM
- IC50 [3, 8]: 278 µM
